From patent US8034314B2, “Photoreactive compound specifically binding to calcium binding proteins” (priority 2004, dated 2011)

Test system: U-937 human monocytic cell line
Assay: STS-induced apoptotic cell death of U-937 cells (acridine orange/ethidium bromide staining)
Format: cell-based
Details: STS 1.25 μM, no AzRu
Experimental: The U-937 human monocytic cell line was grown under an atmosphere of 95% air and 5% CO2 in RPMI 1640 supplemented with 10% fetal calf serum (FCS), 1 mM L-glutamine, 100 U/ml penicillin, and 100 μg/ml streptomycin. Cells were plated at a density of 5.4×10^4 cells/cm^2 in 24-well plates and then incubated with or without AzRu for 18 hr before exposure to 1.25 μM staurosporine (STS) to induce apoptosis. Cell viability was analyzed 5 and 7 hrs after STS addition by staining with 100 μg/ml acridine orange (AcOr) and 100 μg/ml ethidium bromide (EtBr) in PBS. The cells were then visualized by fluorescence microscopy (Olympus IX51) and images were recorded on an Olympus DP70 camera, using an SWB filter.
AzRu had no effect on the viability of the cells that were not exposed to STS. In FIG. 13 A, U-937 cells were incubated without (a, c) or with AzRu (10 μM) (b,d) for 18 hrs and thereafter were exposed to STS (1.25 μM) (c and d). After five hours the cells were stained with acridine orange and ethidium bromide. Arrows indicate cells in early apoptotic state, represented as degraded nucleus, but with intact cell membrane (stained by acridine orange). Arrowheads indicate a late apoptotic state, as shown by the presence of a degraded nucleus (stained by both acridine orange and ethidium bromide). Scale bar, 20 μm. In FIG. 13 B, quantitative analysis of apoptotic cell death in control cells and cells exposed to AzRu was assessed 5 and 7 hr after their exposure to STS (1.25 by ANOVA and t-test. P<0.001 was considered statistically significant (***). Data are the means±SEM, n=3. In each independent experiment, approximately 200 cells were counted for each treatment.

CN[C@@H]1C[C@H]2O[C@@](C)([C@@H]1OC)n1c3ccccc3c3c4c(c5c6ccccc6n2c5c31)C(=O)NC4 [STS, staurosporine, reference compound] was tested, and the “Apoptotic cell death (% of the cells)” value (5 hrs exposure) was “about 42%” and the “Apoptotic cell death (% of the cells)” value (7 hrs exposure) was ~76%.
